Columns and labels:
human OX1 receptors = target: T1, human OX1 receptors (Homo sapiens, UniProt O43613); assay: antagonistic activity against human OX1 receptor, calcium fluorimetry (Fluo-4NW) in transfected CHO cells; format: cell-based; conditions: CHO cells transfected with human recombinant OX1, activated with orexin-A 3 nM; pKb = co-logarithm of apparent dissociation constant (modified Cheng Prusoff)
T1 construct: expressed in transfected cells; host or cells: CHO cells
T1 sequence (O43613 1-425): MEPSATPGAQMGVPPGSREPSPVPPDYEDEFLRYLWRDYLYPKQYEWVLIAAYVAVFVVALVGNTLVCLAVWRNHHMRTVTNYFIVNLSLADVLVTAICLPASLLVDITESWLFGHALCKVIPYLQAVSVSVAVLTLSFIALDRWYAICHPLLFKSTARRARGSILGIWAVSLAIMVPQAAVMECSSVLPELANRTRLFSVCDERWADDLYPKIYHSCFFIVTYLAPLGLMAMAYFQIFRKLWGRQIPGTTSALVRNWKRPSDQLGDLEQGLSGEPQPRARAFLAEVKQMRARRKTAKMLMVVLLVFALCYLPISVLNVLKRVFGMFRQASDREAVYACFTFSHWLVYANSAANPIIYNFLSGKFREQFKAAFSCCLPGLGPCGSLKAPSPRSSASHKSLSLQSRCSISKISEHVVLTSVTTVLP
Description: (§1) In a typical experiment, the antagonistic activity against human OX1 and OX2 receptors is determined by using CHO e HEK-293 cells transfected with human recombinant OX1 and OX2 receptors respectively, seeded at density of 2 and 3×10^4 cells/well respectively in a 96 fluorimetry well plate. Thus the plate was loaded with the calcium dye (Fluo-4NW/probenecid in HBSS, Hepes 20 mM, pH 7,4; Invitrogen) at 37° C. for 60 min. Afterward the temperature was equilibrated at 22° C. for 15 min and the [Ca2+]i measured directly on the plate by using a fluorescent plate reader (CellLux Perkin Elmer).
(§2) Invention compounds were dissolved in DMSO, diluted in HBSS (DMSO, 0.3% final) and added to the wells. After 5 min CHO cells were activated with orexin-A, 3 nM while HEK-293 cells were activated with orexin-B, 10 nM.
(§3) The compounds, dissolved in DMSO and diluted in the medium (DMSO, 0.3% final), have been analysed in the 1 nM-1 μM concentration range (every concentration in duplicate). The antagonistic activity has been expressed as pKb (co-logarithm of the apparent dissociation constant calculated by using the modified Cheng Prusoff equation).
(§4) The results are expressed as percent of control specific […] response ((measured specific response/control specific agonist response)×100) obtained in the presence of the test compounds.
(§5) The IC50 values (concentration causing a half-maximal inhibition of the control specific agonist response) were determinated by non-linear regression analysis of the concentration curves generated with mean replicate values using hill equation curve fitting. The IC50 values are obtained by the arithmetical mean of at least two experiments.

human OX2 receptors = target: T2, human OX2 receptors (Homo sapiens, UniProt O43614); assay: antagonistic activity against human OX2 receptor, calcium fluorimetry (Fluo-4NW) in transfected HEK-293 cells; format: cell-based; conditions: HEK-293 cells transfected with human recombinant OX2, activated with orexin-B 10 nM; pKb = co-logarithm of apparent dissociation constant (modified Cheng Prusoff)
T2 construct: expressed in transfected cells; host or cells: HEK-293 cells
T2 sequence (O43614 1-444): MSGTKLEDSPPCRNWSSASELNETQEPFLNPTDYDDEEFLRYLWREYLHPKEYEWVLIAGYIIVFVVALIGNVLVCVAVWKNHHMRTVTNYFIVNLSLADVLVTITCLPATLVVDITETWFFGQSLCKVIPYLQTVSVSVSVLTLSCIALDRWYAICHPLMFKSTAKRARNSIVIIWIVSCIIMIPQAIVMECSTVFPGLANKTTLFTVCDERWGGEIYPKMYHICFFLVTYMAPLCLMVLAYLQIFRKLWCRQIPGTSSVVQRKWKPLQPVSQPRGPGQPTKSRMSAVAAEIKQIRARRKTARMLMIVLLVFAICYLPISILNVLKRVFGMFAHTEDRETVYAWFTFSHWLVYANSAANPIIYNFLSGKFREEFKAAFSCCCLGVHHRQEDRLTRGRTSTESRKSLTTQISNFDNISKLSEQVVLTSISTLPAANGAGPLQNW
Description: as §1, §2, §3, §4, §5

Row | Structure (SMILES) | Kb (human OX1 receptors) [nM] | Kb (human OX2 receptors) [nM]
1 | N#Cc1ccc(-c2ncccn2)c(C(=O)N2[C@H](CNc3cc(C(F)(F)F)ccn3)CC[C@H]3C[C@H]32)c1 [Compound 1h, 4-(pyrimidin-2-yl)-3-((1R,3S,6S)-3-(((4-(trifluoromethyl)pyridin-2-yl)amino)methyl)-2-azabicyclo[4.1.0]heptane-2-carbonyl)benzonitrile] | 7.94 | 10
2 | Cc1ccc(-c2ncccn2)c(C(=O)N2[C@H](CNc3ccc(C(F)(F)F)cn3)CC[C@H]3C[C@H]32)c1 [Compound 1d, (5-methyl-2-(pyrimidin-2-yl)phenyl)((1R,3S,6S)-3-(((5-(trifluoromethyl)pyridin-2-yl)amino)methyl)-2-azabicyclo[4.1.0]heptan-2-yl)methanone] | 1.26 | 3.98
3 | N#Cc1ccc(-c2ncccn2)c(C(=O)N2[C@H](COc3ccc(Cl)cn3)CC[C@H]3C[C@H]32)c1 [Compound 3a, 3-((1R,3S,6S)-3-(((5-chloropyridin-2-yl)oxy)methyl)-2-azabicyclo[4.1.0]heptane-2-carbonyl)-4-(pyrimidin-2-yl)benzonitrile] | 1.26 | 63.1
4 | Cc1nc(C(=O)N2[C@H](CNc3ccc(C(F)(F)F)cn3)CC[C@@H]3C[C@@H]32)c(-c2ccccc2)s1 [Compound 5a, (2-methyl-5-phenylthiazol-4-yl)((1S,3S,6R)-3-(((5-(trifluoromethyl)pyridin-2-yl)amino)methyl)-2-azabicyclo[4.1.0]heptan-2-yl)methanone] | 2.51 | 50.1
5 | Cc1ccc(-c2ncccn2)c(C(=O)N2[C@H](CNc3ccc(Cl)cn3)CC[C@H]3C[C@H]32)c1 [Compound 1c] | 0.794 | 12.6
6 | O=C(c1cc(Cl)ccc1-c1ncccn1)N1[C@H](CNc2ccc(Cl)cn2)CC[C@H]2C[C@H]21 [Compound 1f, (5-chloro-2-(pyrimidin-2-yl)phenyl)((1R,3S,6S)-3-(((5-chloropyridin-2-yl)amino)methyl)-2-azabicyclo[4.1.0]heptan-2-yl)methanone] | 0.794 | 15.8
7 | N#Cc1ccc(-c2ncccn2)c(C(=O)N2[C@H](CNc3nccc(C(F)(F)F)n3)CC[C@H]3C[C@H]32)c1 [Compound 1j, 4-(pyrimidin-2-yl)-3-((1R,3S,6S)-3-(((4-(trifluoromethyl)pyrimidin-2-yl)amino)methyl)-2-azabicyclo[4.1.0]heptane-2-carbonyl)benzonitrile] | 5.01 | 20
8 | Cc1nc(C(=O)N2[C@H](CNc3nccc(C(F)(F)F)n3)CC[C@H]3C[C@H]32)c(-c2ccccc2)s1 [Compound 2c, (2-methyl-5-phenylthiazol-4-yl)((1R,3S,6S)-3-(((4-(trifluoromethyl)pyrimidin-2-yl)amino)methyl)-2-azabicyclo[4.1.0]heptan-2-yl)methanone] | 1.26 | 6.31
9 | Cc1ccc(-c2ncccn2)c(C(=O)N2[C@H](CNc3nccc(C(F)(F)F)n3)CC[C@H]3C[C@H]32)c1 [Compound 1k, (5-methyl-2-(pyrimidin-2-yl)phenyl)((1R,3S,6S)-3-(((4-(trifluoromethyl)pyrimidin-2-yl)amino)methyl)-2-azabicyclo[4.1.0]heptan-2-yl)methanone] | 2.51 | 5.01
10 | O=C(c1cc(Cl)ccc1-c1ncccn1)N1[C@H](CNc2nccc(C(F)(F)F)n2)CC[C@H]2C[C@H]21 [Compound 1g, (5-chloro-2-(pyrimidin-2-yl)phenyl)((1R,3S,6S)-3-(((4-(trifluoromethyl)pyrimidin-2-yl)amino)methyl)-2-azabicyclo[4.1.0]heptan-2-yl)methanone] | 1 | 5.01
11 | N#Cc1ccc(-c2ncccn2)c(C(=O)N2[C@H](CNc3ccc(C(F)(F)F)cn3)CC[C@@H]3C[C@@H]32)c1 [Compound 4c, 4-(pyrimidin-2-yl)-3-((1S,3S,6R)-3-(((5-(trifluoromethyl)pyridin-2-yl)amino)methyl)-2-azabicyclo[4.1.0]heptane-2-carbonyl)benzonitrile] | 6.31 | 79.4

From patent US9174977B2, “2-azabicyclo[4.1.0]heptane derivatives as orexin receptor antagonists for the treatment of certain disorders” (Rottapharm Biotech S.r.l., priority 2012, dated 2015)
